MIC, MCC and hemolysis data for one compound are collected here from ChEMBL document CHEMBL3112395, “Synthesis and structure-activity relationship studies of N-terminal analogues of the antimicrobial peptide tridecaptin A(1)” (J Med Chem, 2014).

Converted amounts (≈) assume the structure as drawn.

One data set relates to Enterobacter cloacae. Description: Antibacterial activity against multi-drug resistant Enterobacter cloacae 849 clinical isolate assessed as growth inhibition by broth dilution method. In kind it is functional.
The next data set concerns Acinetobacter baumannii. Description: Antibacterial activity against Acinetobacter baumannii ATCC 19606 assessed as growth inhibition by broth dilution method. In kind it is functional.
Another data set concerns Pseudomonas aeruginosa. Description: Antibacterial activity against Pseudomonas aeruginosa ATCC 27853 assessed as growth inhibition by broth dilution method. In kind it is functional. On the technique in general: In broth dilution the organism is exposed to a series of concentrations in liquid medium.
In a further data set the test system is Campylobacter jejuni. Put plainly: Antibacterial activity against Campylobacter jejuni NCTC 11168 assessed as growth inhibition by broth dilution method. In kind it is functional.
Another data set concerns Listeria monocytogenes. Put plainly: Antibacterial activity against Listeria monocytogenes ATCC […] assessed as growth inhibition by broth dilution method. In kind it is functional.
A further data set concerns Staphylococcus aureus. Put plainly: Antibacterial activity against Staphylococcus aureus ATCC 29213 assessed as growth inhibition by broth dilution method. In kind it is functional.
Data set [1] concerns Klebsiella pneumoniae. Put plainly: Antibacterial activity against multi-drug resistant Klebsiella pneumoniae KpCG clinical isolate assessed as growth inhibition by broth dilution method. In kind it is functional.
The next data set deals with Enterococcus faecalis. Put plainly: Antibacterial activity against Enterococcus faecalis ATCC 29212 assessed as growth inhibition by broth dilution method. In kind it is functional.
Another data set relates to Enterococcus faecium. Put plainly: Antibacterial activity against Enterococcus faecium ATCC 19434 assessed as growth inhibition by broth dilution method. In kind it is functional.
For data set [2], the system named is Escherichia coli. Put plainly: Antibacterial activity against Escherichia coli O157:H7 assessed as growth inhibition by broth dilution method. In kind it is functional.
The nature of data set [3]: Cytotoxicity against HEK293 cells assessed as growth inhibition after 48 hrs by MTT assay. To be noted: human, read-out: MIC. In kind it is cell-based.
The test system of another data set is Salmonella enterica. Description: Antibacterial activity against Salmonella enterica ATCC 13311 assessed as growth inhibition by broth dilution method. In kind it is functional.
The test system of data set [4] is Klebsiella pneumoniae. Put plainly: Antibacterial activity against Klebsiella pneumoniae ATCC 13883 assessed as growth inhibition by broth dilution method. In kind it is functional.
Data set [5] relates to Escherichia coli. Description: Antibacterial activity against Escherichia coli ATCC 25922 assessed as growth inhibition by broth dilution method. In kind it is functional.
Data set [6] is described as follows: Antibacterial activity against multi-drug resistant Clostridium difficile 630 assessed as growth inhibition by broth dilution method. In kind it is functional, Clostridioides difficile 630. The note with it: Clostridioides difficile.
A short description of data set [7]: Hemolytic activity in rabbit erythrocytes at 83 ug/mL after 30 mins relative to control. In kind it is ADME, cell-based, Oryctolagus cuniculus, Erythrocyte. The note with it: read-out: Activity.

In general, MIC refers to the least concentration at which growth counts as inhibited. As for `CCCCCCCC(=O)N[C@@H](C(=O)N[C@H](CCN)C(=O)NCC(=O)N[C@H](CO)C(=O)N[C@H](Cc1c[nH]c2ccccc12)C(=O)N[C@@H](CO)C(=O)N[C@@H](CCN)C(=O)N[C@H](CCN)C(=O)N[C@@H](Cc1ccccc1)C(=O)N[C@@H](CCC(=O)O)C(=O)N[C@H](C(=O)N[C@@H](C(=O)N[C@@H](C)C(=O)O)[C@@H](C)CC)C(C)C)C(C)C`, the MIC amounted to 0.43 µg/mL (≈ 0.283 µM) in the data set with Enterobacter cloacae; 12.5 µg/mL (≈ 8.22 µM) with Acinetobacter baumannii; 25 µg/mL (≈ 16.4 µM) with Pseudomonas aeruginosa; 0.78 µg/mL (≈ 0.513 µM) with Campylobacter jejuni; 25 µg/mL (≈ 16.4 µM) in the data set on Listeria monocytogenes; 100 µg/mL (≈ 65.8 µM) with Staphylococcus aureus. For the same compound, the MIC was 2.33 µg/mL (≈ 1.53 µM) in the data set on Klebsiella pneumoniae [1]; 100 µg/mL (≈ 65.8 µM) with Enterococcus faecalis; 50 µg/mL (≈ 32.9 µM) in the data set with Enterococcus faecium; 0.43 µg/mL (≈ 0.283 µM) with Escherichia coli [2]; 6.25 µg/mL (≈ 4.11 µM) in the data set with Salmonella enterica; 3.13 µg/mL (≈ 2.06 µM) in the data set with Klebsiella pneumoniae [4]. The minimum inhibitory concentration (MIC) in the data set with Escherichia coli [5] was found to be 3.13 µg/mL (≈ 2.06 µM); in [6] it was 12.7 µg/mL (≈ 8.35 µM). The MCC at 48 h in data set [3] is 100 µg/mL. In data set [7], the hemolysis at 0.5 h, 83 ug/mL amounted to 4.7%.
